Read-outs that look alike come from different tables or passages of the source.
Tests used:
[1] = test system: sebaceous gland carcinoma cell line SHNPH-SeC; assay: Drug sensitivity test of SHNPH-SeC cells (CCK-8 cell viability); type: cell-based, human; settings: 48 h, cell viability by CCK-8, read-out: Half-maximal effective concentration (EC50)
Method: Cells in a logarithmic growth phase were harvested and prepared into a cell suspension at a concentration of 2×10^4 cells/mL. The cell suspension was inoculated into a 96-well plate at 100 μL/well. The cell proliferation in the 96-well plate was measured by the CCK-8 method on day 0, day 1, day 2, day 3, and day 4. The CCK-8 method was performed according to instructions of a kit. Specifically, a sample was incubated with 10 μL of a CCK-8 solution for 2 h in a 37° C. and 5% CO2 incubator, and an OD value was then measured at 450 nm. As shown in the growth curve of FIG. 3A, the sebaceous gland carcinoma cell line SHNPH-SeC required a doubling time of approximately 36 h, indicating a strong proliferative capacity.
Cells in a logarithmic growth phase were collected and prepared into a cell suspension with a concentration of 2×10^4 cells/mL. […] When a cell density reached approximately 80%, MMC was added to each well at concentrations of 0 μmol/L, 0.15625 μmol/L, 0.3125 μmol/L, 0.625 μmol/L, 1.25 μmol/L, 2.5 μmol/L, 5 μmol/L, 10 μmol/L, and 20 μmol/L or 5-FU was added to each well at concentrations of 0 μmol/L, 5 μmol/L, 10 μmol/L, 20 μmol/L, 40 μmol/L, 80 μmol/L, 160 μmol/L, 320 μmol/L, and 640 μmol/L. 48 h later, a cell viability in each well was detected by the CCK-8 method, with a specific process as described in section 2.3. […]

[2] = test system: sebaceous gland carcinoma cell line BP50 without a TP53 mutation; settings: BP50 cells without a TP53 mutation, previously reported; cited from earlier work

| EC50 ([1]; Homo sapiens) [µM] | SMILES | EC50 [2] [µM] | EC50 [1] [µM] |
| --- | --- | --- | --- |
| 83 | O=c1[nH]cc(F)c(=O)[nH]1 [5-FU, 5-fluorouracil] | – | – |
| – | CO[C@@]12[C@H](COC(N)=O)C3=C(C(=O)C(C)=C(N)C3=O)N1C[C@@H]1N[C@@H]12 [MMC, mitomycin C] | 10.4 | 1.13 |
